Assay results reported in patent publication US7943376B2, “Platelet derived growth factor (PDGF)-derived neurospheres define a novel class of progenitor cells” (Stem Cell Therapuetics Inc., priority 2001, dated 2011).
“And” between values parts separate entries of the source, which are not always exact repeats. Equal entries are not always repeated. “Also recorded” adds a separate entry of the source.

Experiments:
[1] = test system: PDGF primary neurospheres; test: Secondary neurosphere formation from dissociated PDGF-derived primary neurospheres; type: cell-based, mouse; conditions: single PDGF primary neurospheres dissociated in 20 ng/ml EGF or 100 ng/ml PDGF-AA; 7 or more days in vitro
Method: Single PDGF primary neurospheres prepared as described in Example 1 were transferred into 96-well plates and mechanically dissociated in either the presence of 20 ng/ml EGF (Peprotech) or 100 ng/ml PDGF-AA. The formation of secondary neurospheres was assayed after 7 or more days in culture in vitro.

[2] = test system: brain tissue prepared as described in Example 1 (E14 striatum); test: Combined effect of PDGF and EGF on number of neurospheres formed; type: cell-based, mouse; conditions: cultured in PDGF, EGF, or the combination of PDGF and EGF
Method: (§1) E14 striatum was mechanically dissociated as previously described (for example see U.S. Pat. Nos. 5,750,376; 5,980,885; or 5,851,832) and plated at 10,000 cells/ml in 6 well plates in defined culture media plus 100 ng/ml of PDGF-AA (Peprotech). The composition of defined culture media is as follows: • DMEM/F12 (1:1) • glucose (0.6%) • glutamine (2 mM) • sodium bicarbonate (3 mM) • HEPES (5 mM) • insulin (25 μg/ml) • transferrin (100 μg/ml) • progesterone (20 nM) • putrescine (60 μM) • selenium chloride (30 nM)
We also tested the effect of combining PDGF and EGF on the number of neurospheres formed. Thus, brain tissue was prepared as described in Example 1 and cultured in the presence of PDGF, EGF, or the combination of PDGF and EGF.

[3] = test system: lateral ganglionic eminence (LGE); test: Neurosphere formation using lateral ganglionic eminence; type: cell-based, mice; conditions: LGE from E14 embryos, cultured as in Example 1 with EGF or PDGF; n = 2 or 3
Source text: (§2) In order to locate the cells that give rise to the novel progenitor cells described herein, we dissected ganglionic eminence to two portions. Thus, the ganglionic eminence was isolated from E14 embryos of mice, and the medial ganglionic eminence (MGE) was separated from the lateral ganglionic eminence (LGE). MGE and LGE were then dissociated and cultured as described in Example 1. The resulting primary culture was exposed to EGF or PDGF in addition to the defined culture media, and the number of neurospheres were counted and summarized below.

[4] = test system: medial ganglionic eminence (MGE); test: Neurosphere formation using medial ganglionic eminence; type: cell-based, mice; conditions: MGE from E14 embryos, cultured as in Example 1 with EGF or PDGF; n = 2 or 3
Source text: as §2

primary EGF neurospheres = test: Secondary neurosphere formation from dissociated EGF-derived primary neurospheres; type: cell-based, mouse; conditions: single primary EGF-generated neurospheres dissociated in EGF- or PDGF-containing media; eight wells per condition; Exp. #1 and #2
Method: To determine if the neurospheres derived in EGF-containing media have different proliferation properties as those of PDGF-generated neurospheres, primary EGF neurospheres were generated from embryonic day 14 striatum by culturing dissociated striatum in EGF (20 ng/ml) containing define culture media at a cell density of 200,000 cells/ml. Subsequently, individual neurospheres were isolated, placed in individual wells in either PDGF or EGF containing media, and dissociated mechanically. The numbers of secondary neurospheres that came from a single primary EGF-generated neurospheres are given below (eight wells for each condition; numbers indicate average number of secondary neurospheres/well): […]

E14 striatum = test: PDGF-induced production of primary neurospheres from dissociated E14 striatum; type: cell-based, mouse
Method: as §1
Neurospheres, which are clusters of neural cells derived from single cells, formed after 7 days of culture in vitro (DIV). Six wells per experiment were counted for neurosphere production and the results are shown below:
In control experiments, wherein PDGF was omitted from the culture media, no neurospheres formed. Therefore, PDGF is capable of inducing neurosphere production from single precursor cells in the absence of serum, EGF, TGF-α and FGF-2.

EGF-derived neurospheres = test: Effect of Tyrphostin AG 1296 on primary neurosphere formation in response to EGF; type: cell-based, mouse
Method: (§3) In order to determine if the PDGF-induced primary neurosphere formation is mediated by the PDGF receptor kinase, a selective PDGF receptor kinase inhibitor, Tyrphostin AG 1296, was added to neurosphere culture. Primary cells were cultured at 10,000 cells/ml in the presence of either EGF or PDGF, plus 5 μM of Tyrphostin AG 1296 (Sigma) or DMSO in the same volume as Tyrphostin (DMSO being the solvent for Tyrphostin). Results are expressed below as the percentage of neurospheres formed, with the number of PDGF- or EGF-derived neurospheres arbitrarily set at 100%, respectively.

[5] = test system: PDGF-derived neurospheres; test: Effect of Tyrphostin AG 1296 on primary neurosphere formation in response to PDGF; type: cell-based, mouse
Method: as §3

| Substance | Average # of secondary neurospheres formed/well [1] | Average number of neurospheres [2] | Average number of neurospheres [3] | Average number of neurospheres [4] | average number of secondary neurospheres/well (primary EGF neurospheres) | Average number of neurospheres produced/well, average of experiments 1-6 (E14 striatum; 100 ng/ml PDGF-AA, 10,000 cells/ml, 7 DIV, mean over six experiments) | Average number of neurospheres produced/well (E14 striatum; 100 ng/ml PDGF-AA, 10,000 cells/ml, defined media, 7 DIV, single experiments, six wells each) | Average number of neurospheres produced/well (E14 striatum; as E1, experiments marked *: PDGF used immediately after reconstitution in defined culture media) | Potency when used immediately after reconstitution in defined culture media (E14 striatum; relative to PDGF not used immediately after reconstitution) | Effect on EGF-derived neurosphere formation (in words) (EGF-derived neurospheres; 5 μM Tyrphostin AG 1296) | percentage of neurospheres formed (EGF-derived neurospheres; EGF plus 5 μM Tyrphostin AG 1296, 10,000 cells/ml, EGF alone set at 100%, n = 3 to 9) [%] | Effect on primary neurosphere formation induced by PDGF (in words) ([5]; 5 μM Tyrphostin AG 1296) | percentage of neurospheres formed ([5]; PDGF plus 5 μM Tyrphostin AG 1296, 10,000 cells/ml, PDGF alone set at 100%, n = 3 to 9) [%] |
| --- | --- | --- | --- | --- | --- | --- | --- | --- | --- | --- | --- | --- | --- |
| EGF: epidermal growth factor (Peprotech), used at 20 ng/ml | 3.12 ± 1.64 (n = 3) | 80.5 ± 8.57 | 9.64 ± 1.59 | 16.9 ± 2.87 | 27 and 14.1 |  |  |  |  |  |  |  |  |
| PDGF: platelet derived growth factor; PDGF-AA (Peprotech) used at 100 ng/ml | 0 | 73.36 ± 7.13 | 1.27 ± 0.45 | 10.22 ± 1.11 | 21.5 and 26.7 | average = 17.7 ± 5.0 | 14.5 and 9.2 and 8.6 and 7.7 | 34.3* and 32.5* | *PDGF appears to be approximately 3 fold more potent when used immediately after reconstitution in defined culture media. |  |  |  |  |
| Tyrphostin AG 1296 |  |  |  |  |  |  |  |  |  | inhibited by Tyrphostin AG 1296 to some extent | 55 | inhibited; also recorded: almost abolished | 10 |
